Test results reported in ChEMBL document CHEMBL5634109, “Synthesis and mechanism of action of new purine derivatives against triple negative breast cancer” (Eur J Med Chem, 2023).
pIC50: −log10 of the molar value. The source made the active and inactive calls. The rule behind the calls is not given here.

Experiments:
[1] = test system: HT-29; experiment: Antiproliferative activity against human HT-29 cells assessed as reduction in cell viability measured for 48 hrs by MTT assay; type: functional, cell-based; conditions: HT-29, 48 h
[2] = molecular target: Dual specificity tyrosine-phosphorylation-regulated kinase 1A (Homo sapiens, UniProt Q13627); experiment: Inhibition of DYRK1A (unknown origin)
[3] = test system: HepG2; experiment: Antiproliferative activity against human HepG2 cells assessed as reduction in cell viability measured for 48 hrs by MTT assay; type: functional, cell-based; conditions: HepG2, 48 h
[4] = test system: NCI-H1299; experiment: Antiproliferative activity against human NCI-H1299 cells assessed as reduction in cell viability measured for 48 hrs by MTT assay; type: functional, cell-based; conditions: NCI-H1299, 48 h
[5] = test system: MCF7; experiment: Antiproliferative activity against human MCF7 cells assessed as reduction in cell viability measured for 48 hrs by MTT assay; type: functional, cell-based; conditions: MCF7, 48 h
[6] = test system: K562; experiment: Antiproliferative activity against human K562 cells assessed as reduction in cell viability measured for 48 hrs by MTT assay; type: functional, cell-based; conditions: K562, 48 h
[7] = test system: HCT-116; experiment: Antiproliferative activity against human HCT-116 cells assessed as reduction in cell viability measured for 48 hrs by MTT assay; type: functional, cell-based; conditions: HCT-116, 48 h
[8] = molecular target: T1, Dual specificity protein kinase CLK4 (Homo sapiens, UniProt Q9HAZ1); experiment: Inhibition of CLK4 (unknown origin)
Target sequence in this assay (Q9HAZ1 whole entry): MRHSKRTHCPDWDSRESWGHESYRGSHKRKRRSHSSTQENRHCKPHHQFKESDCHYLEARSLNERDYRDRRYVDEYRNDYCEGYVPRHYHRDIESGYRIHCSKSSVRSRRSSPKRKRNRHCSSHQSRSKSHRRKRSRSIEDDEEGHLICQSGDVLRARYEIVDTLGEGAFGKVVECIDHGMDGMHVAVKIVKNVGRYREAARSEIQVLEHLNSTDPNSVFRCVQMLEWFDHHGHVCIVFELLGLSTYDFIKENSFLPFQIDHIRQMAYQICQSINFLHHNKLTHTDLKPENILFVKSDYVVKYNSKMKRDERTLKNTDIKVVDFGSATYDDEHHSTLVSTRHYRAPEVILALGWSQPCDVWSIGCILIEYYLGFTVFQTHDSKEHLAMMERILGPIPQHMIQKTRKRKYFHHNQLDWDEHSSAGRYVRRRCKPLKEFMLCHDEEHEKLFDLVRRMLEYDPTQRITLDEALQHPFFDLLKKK

[9] = molecular target: Dual specificity protein kinase CLK1 (Homo sapiens, UniProt P49759); experiment: Inhibition of CLK1 (unknown origin)
Dual specificity protein kinase CLK1, sequence (P49759 whole entry, canonical isoform): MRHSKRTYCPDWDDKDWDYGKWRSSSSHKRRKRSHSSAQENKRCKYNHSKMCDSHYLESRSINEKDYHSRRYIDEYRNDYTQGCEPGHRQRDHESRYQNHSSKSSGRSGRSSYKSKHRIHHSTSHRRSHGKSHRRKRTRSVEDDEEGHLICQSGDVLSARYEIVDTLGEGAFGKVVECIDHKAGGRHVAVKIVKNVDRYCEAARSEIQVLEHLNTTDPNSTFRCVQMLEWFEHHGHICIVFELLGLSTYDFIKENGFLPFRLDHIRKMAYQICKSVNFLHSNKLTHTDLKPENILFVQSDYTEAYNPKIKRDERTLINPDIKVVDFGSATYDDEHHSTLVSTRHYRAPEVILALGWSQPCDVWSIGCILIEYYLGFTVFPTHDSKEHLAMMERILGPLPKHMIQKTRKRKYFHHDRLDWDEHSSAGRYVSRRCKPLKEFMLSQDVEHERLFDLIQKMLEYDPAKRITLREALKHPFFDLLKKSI

[10] = molecular target: Casein kinase I isoform epsilon (Homo sapiens, UniProt P49674); experiment: Inhibition of CK1epsilon (unknown origin)
Casein kinase I isoform epsilon, sequence (P49674 whole entry, canonical isoform): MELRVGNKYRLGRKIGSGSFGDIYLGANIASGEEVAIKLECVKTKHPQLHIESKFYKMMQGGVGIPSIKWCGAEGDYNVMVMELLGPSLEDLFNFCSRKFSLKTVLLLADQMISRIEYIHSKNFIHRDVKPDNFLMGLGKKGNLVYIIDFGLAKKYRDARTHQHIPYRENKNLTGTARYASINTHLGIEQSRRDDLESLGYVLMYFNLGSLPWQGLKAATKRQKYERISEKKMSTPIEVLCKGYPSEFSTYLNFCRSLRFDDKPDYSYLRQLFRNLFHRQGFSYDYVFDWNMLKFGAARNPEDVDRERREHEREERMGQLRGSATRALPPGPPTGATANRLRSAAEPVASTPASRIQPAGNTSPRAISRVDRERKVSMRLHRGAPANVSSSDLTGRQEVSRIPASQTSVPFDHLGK

[11] = test system: PC-3; experiment: Antiproliferative activity against human PC-3 cells assessed as reduction in cell viability measured for 48 hrs by MTT assay; type: functional, cell-based; conditions: PC-3, 48 h
[12] = molecular target: T2, Dual specificity protein kinase CLK2 (Homo sapiens, UniProt P49760); experiment: Inhibition of CLK2 (unknown origin)
Target sequence in this assay (P49760 whole entry): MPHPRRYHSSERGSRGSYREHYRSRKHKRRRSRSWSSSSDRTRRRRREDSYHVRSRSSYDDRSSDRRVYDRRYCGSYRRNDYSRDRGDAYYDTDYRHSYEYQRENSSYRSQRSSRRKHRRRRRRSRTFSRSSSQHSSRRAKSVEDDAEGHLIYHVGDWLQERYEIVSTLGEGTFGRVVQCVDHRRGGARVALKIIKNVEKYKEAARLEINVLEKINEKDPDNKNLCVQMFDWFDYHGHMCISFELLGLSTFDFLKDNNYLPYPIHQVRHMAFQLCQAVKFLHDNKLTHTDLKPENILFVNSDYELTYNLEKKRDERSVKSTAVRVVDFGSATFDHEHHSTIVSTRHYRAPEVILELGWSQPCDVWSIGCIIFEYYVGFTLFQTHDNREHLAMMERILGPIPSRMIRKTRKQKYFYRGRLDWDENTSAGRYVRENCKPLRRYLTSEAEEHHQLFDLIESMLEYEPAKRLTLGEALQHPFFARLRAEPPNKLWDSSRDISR

[13] = molecular target: T3, Cyclin-dependent kinase 7 (Homo sapiens, UniProt P50613); experiment: Inhibition of CDK7 (unknown origin)
T3 sequence (P50613 whole entry): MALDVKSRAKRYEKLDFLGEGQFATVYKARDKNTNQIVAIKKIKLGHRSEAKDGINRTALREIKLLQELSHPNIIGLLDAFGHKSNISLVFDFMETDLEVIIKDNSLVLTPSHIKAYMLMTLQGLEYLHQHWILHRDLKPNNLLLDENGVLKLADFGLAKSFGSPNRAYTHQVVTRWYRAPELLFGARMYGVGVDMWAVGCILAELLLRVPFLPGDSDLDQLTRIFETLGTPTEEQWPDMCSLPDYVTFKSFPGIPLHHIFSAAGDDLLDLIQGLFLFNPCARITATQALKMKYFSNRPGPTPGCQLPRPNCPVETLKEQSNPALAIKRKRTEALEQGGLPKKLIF

[14] = test system: A549; experiment: Antiproliferative activity against human A549 cells assessed as reduction in cell viability measured for 48 hrs by MTT assay; type: functional, cell-based; conditions: A549, 48 h
[15] = test system: MGC-803; experiment: Antiproliferative activity against human MGC-803 cells assessed as reduction in cell viability measured for 48 hrs by MTT assay; type: functional, cell-based; conditions: MGC-803, 48 h
[16] = test system: MDA-MB-231; experiment: Inhibition of cell migration human MDA-MB-231 cells assessed as migration distance at 25 uM incubated for 48 hrs by wound healing assay (reference value: 642.72 micrometer); type: functional
[17] = test system: Cell membrane; experiment: Induction of mitochondrial membrane potential loss in human MDA-MB-231 cells assessed as increase in fluorescence intensity at 40 uM incubated for 48 hrs by TMRM dye based flow cytometry analysis (reference value: 97.5%)
[18] = test system: MDA-MB-231; experiment: Induction of ROS generation in human MDA-MB-231 cells assessed as increase in intracellular ROS level at 40 uM incubated for 48 hrs by DCFH-DA staining based fluorescence microscopic analysis (Rvb= 24.7%); type: functional
[19] = test system: MDA-MB-231; experiment: Inhibition of cell migration human MDA-MB-231 cells assessed as migration distance at 25 uM incubated for 24 hrs by wound healing assay (reference value: 642.72 micrometer); type: functional
[20] = test system: HUVEC; experiment: Antiangiogenesis activity in HUVEC cells at 125 nM incubated for 12 hrs by microscopic analysis; type: functional, cell-based; conditions: Homo sapiens
[21] = test system: MDA-MB-231; experiment: Inhibition of cell migration human MDA-MB-231 cells at 0.01 to 0.4 uM incubated for 20 hrs by DAPI staining based analysis; type: functional; conditions: dose 0.01-0.4 µM
[22] = test system: MDA-MB-468; experiment: Antiproliferative activity against human MDA-MB-468 cells assessed as reduction in cell viability measured for 48 hrs by MTT assay; type: functional, cell-based; conditions: MDA-MB-468, 48 h
[23] = test system: MDA-MB-231; experiment: Antiproliferative activity against human MDA-MB-231 cells assessed as reduction in cell viability measured for 48 hrs by MTT assay; type: functional, cell-based; conditions: MDA-MB-231, 48 h
[24] = Antiproliferative activity against human HUVEC cells assessed as reduction in cell viability measured for 48 hrs by MTT assay; type: toxicity, cell-based
[25] = Antiproliferative activity against human HEK293 cells assessed as reduction in cell viability measured for 48 hrs by MTT assay; type: toxicity, cell-based
[26] = molecular target: T2, Dual specificity protein kinase CLK2; experiment: Inhibition of CLK2 (unknown origin) at 10 uM relative to control
Target sequence in this assay (P49760 whole entry, looked up): as the sequence (P49760 whole entry) above

[27] = molecular target: T3, Cyclin-dependent kinase 7; experiment: Inhibition of CDK7 (unknown origin) at 10 uM relative to control
[28] = molecular target: Cyclin-dependent kinase 9 (Homo sapiens) (UniProt P50750); experiment: Inhibition of CDK9 (unknown origin) at 1 uM relative to control
Cyclin-dependent kinase 9 (Homo sapiens), sequence (P50750 whole entry): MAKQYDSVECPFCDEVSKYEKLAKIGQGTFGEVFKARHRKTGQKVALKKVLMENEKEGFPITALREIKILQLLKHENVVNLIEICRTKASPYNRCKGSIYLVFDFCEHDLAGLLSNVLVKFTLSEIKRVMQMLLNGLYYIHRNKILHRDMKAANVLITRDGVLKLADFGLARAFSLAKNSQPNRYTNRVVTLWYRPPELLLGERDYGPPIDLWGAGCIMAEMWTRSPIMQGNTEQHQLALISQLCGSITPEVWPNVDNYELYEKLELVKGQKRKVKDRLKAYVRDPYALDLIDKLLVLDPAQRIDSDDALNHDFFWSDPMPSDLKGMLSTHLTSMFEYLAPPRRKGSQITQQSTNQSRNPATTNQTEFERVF

[29] = molecular target: T4, Cyclin-dependent kinase 2/cyclin E1 (Homo sapiens) (UniProt P24864+P24941); experiment: Inhibition of CDK2/Cyclin E (unknown origin) at 10 uM relative to control; type: protein-complex assay
[30] = molecular target: T2, Dual specificity protein kinase CLK2; experiment: Inhibition of CLK2 (unknown origin) at 1 uM relative to control
Target sequence in this assay (P49760 whole entry, looked up): as the sequence (P49760 whole entry) above

[31] = molecular target: Cyclin-dependent kinase 9 (Homo sapiens) (UniProt P50750); experiment: Inhibition of CDK9 (unknown origin) at 10 uM relative to control
[32] = molecular target: T5, Cyclin-dependent kinase 5/CDK5 activator 1 (Homo sapiens) (UniProt Q00535+Q15078); experiment: Inhibition of CDK5/P25 (unknown origin) at 10 uM relative to control; type: protein-complex assay
T5 sequence (Q00535 whole entry): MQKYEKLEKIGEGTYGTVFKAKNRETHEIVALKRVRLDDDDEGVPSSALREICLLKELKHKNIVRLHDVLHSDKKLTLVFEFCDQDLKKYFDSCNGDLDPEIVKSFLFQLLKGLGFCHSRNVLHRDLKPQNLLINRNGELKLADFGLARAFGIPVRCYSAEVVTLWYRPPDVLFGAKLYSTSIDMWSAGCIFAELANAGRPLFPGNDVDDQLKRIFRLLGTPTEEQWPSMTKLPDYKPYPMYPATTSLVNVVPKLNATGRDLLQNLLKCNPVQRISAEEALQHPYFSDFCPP
T5 sequence (Q15078 99-307 partner limits assumed): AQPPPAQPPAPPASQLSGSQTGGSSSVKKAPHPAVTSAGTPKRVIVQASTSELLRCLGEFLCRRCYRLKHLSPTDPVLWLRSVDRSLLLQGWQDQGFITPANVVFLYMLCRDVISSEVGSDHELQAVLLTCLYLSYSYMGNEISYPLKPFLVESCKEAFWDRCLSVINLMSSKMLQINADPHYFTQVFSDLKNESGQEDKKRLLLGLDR

[33] = molecular target: T4, Cyclin-dependent kinase 2/cyclin E1 (Homo sapiens); experiment: Inhibition of CDK2/Cyclin E (unknown origin) at 1 uM relative to control; type: protein-complex assay
[34] = molecular target: T1, Dual specificity protein kinase CLK4; experiment: Inhibition of CLK4 (unknown origin) at 10 uM relative to control
Target sequence in this assay (Q9HAZ1 whole entry, looked up): as the sequence (Q9HAZ1 whole entry) above

[35] = molecular target: T5, Cyclin-dependent kinase 5/CDK5 activator 1 (Homo sapiens); experiment: Inhibition of CDK5/P25 (unknown origin) at 1 uM relative to control; type: protein-complex assay
[36] = molecular target: T1, Dual specificity protein kinase CLK4; experiment: Inhibition of CLK4 (unknown origin) at 1 uM relative to control
Target sequence in this assay (Q9HAZ1 whole entry, looked up): as the sequence (Q9HAZ1 whole entry) above

[37] = molecular target: T3, Cyclin-dependent kinase 7; experiment: Inhibition of CDK7 (unknown origin) at 1 uM relative to control

SMILES	pIC50 [1]	pIC50 [2]	pIC50 [3]	pIC50 [4]	pIC50 [5]	pIC50 [6]	pIC50 [7]	pIC50 [8]	pIC50 [9]	pIC50 [10]	pIC50 [11]	pIC50 [12]	pIC50 [13]	pIC50 [14]	pIC50 [15]	also measured
CC(C)n1cnc2c(NCc3ccc(F)c(F)c3)nc(N3CCC(C4CCN(CCO)CC4)CC3)nc21	5.46	6.10	5.52	4.71	5.52	6.36	5.55	6.51	6.02	6.38	5.40	7.10	6.22	5.60	5.29	
CC[C@H](CO)Nc1nc(NCc2ccccc2)c2ncn(C(C)C)c2n1 [SELICICLIB]	< 4.00		< 4.00	4.08	< 4.00	< 4.00	4.76				< 4.00			< 4.00	< 4.00	Activity [16]: 453.91 um; Activity [17]: 87.5%; Activity [18]: 21.8%; Activity [19]: 348.27 um; Activity [20]: Active; inhibition [21]: Active
OCCN1CCC(C2CCN(c3nc(NCc4cc(F)cc(F)c4)c4ncn(C5CCCC5)c4n3)CC2)CC1	5.47		5.35	5.19	5.53	5.60	4.38				5.36			5.63	5.24	
CC(C)n1cnc2c(NCc3ccccn3)nc(N3CCC(C4CCN(CCO)CC4)CC3)nc21	4.27	6.68	4.12	4.27	4.35	4.54	4.64	7.33	6.76	6.78		7.70	7.37	4.42	< 4.00	
CC(C)n1cnc2c(NCc3cc(F)cnc3Cl)nc(N3CCC(C4CCN(CCO)CC4)CC3)nc21	5.62		5.16	5.56	5.22	6.54	6.46							6.35	5.17	pIC50 [22]: 5.39; pIC50 [23]: 6.40; IC50 at 48 h [24]: 1.55 µM; IC50 at 48 h [25]: 0.46 µM
CC(C)n1cnc2c(NCc3ccncc3)nc(N3CCC(C4CCN(CCO)CC4)CC3)nc21	4.45		4.23	4.41	4.99	4.51	4.61							4.46	< 4.00	
CC[C@@]1(O)C(=O)OCc2c1cc1n(c2=O)Cc2cc3ccccc3nc2-1 [CAMPTOTHECIN]	6.72			< 4.00	5.19	7.10	6.68				< 4.00			5.26	< 4.00	pIC50 [22]: < 4.00; pIC50 [23]: < 4.00; IC50 at 48 h [24]: 0.04 µM; IC50 at 48 h [25]: 0.81 µM
OCCN1CCC(C2CCN(c3nc(NCc4ccc(Cl)c(F)c4)c4ncn(C5CCCC5)c4n3)CC2)CC1	5.38	6.35	5.76	5.32	5.55	5.58	5.53	6.90	6.11	6.71	5.14	7.24	5.69	5.45	4.70	
CC(C)n1cnc2c(NCc3ccccc3)nc(N3CCC(C4CCN(CCO)CC4)CC3)nc21	5.50	6.06	5.74				5.65	6.80	6.39	6.11		7.17	6.84			inhibition [26]: 99%; inhibition [27]: 96%; inhibition [28]: 8%; inhibition [29]: 49%; inhibition [30]: 99%; inhibition [31]: 40%; inhibition [32]: 42%; inhibition [33]: 2%; inhibition [34]: 97%; inhibition [35]: 4%; inhibition [36]: 92%; inhibition [37]: 88%
CC(C)n1cnc2c(NCc3cccnc3Cl)nc(N3CCC(C4CCN(CCO)CC4)CC3)nc21	< 4.00		< 4.00	< 4.00	< 4.00	< 4.00	4.26							< 4.00	< 4.00	
